Results as given in patent US5250283A, “Organic contrast agent analog and method of making same” (priority 1992, dated 1993).
Counter-ions that a name gives are not always drawn. Like-named read-outs stand apart in the source and are kept apart here.

Legend:
[1] = Biliary excretion and bile flow after i.v. TFA-IOP (100 umol/kg) or IOP (100 in text, 104 umol/kg in tables) in rats; conditions: rat; for dose excreted at 10 min / dose excreted at 20 min / dose excreted at 0.5 h / dose excreted at 40 min / dose excreted at 50 min / dose excreted at 1 h / dose excreted at 70 min / dose excreted at 80 min / dose excreted at 1.5 h / dose excreted at 0 h: in vivo, iv, 100 umol/kg
Description: Tissues examined included liver, spleen, upper GI, lower GI, kidney, lung and heart. The length of each study was 90 minutes, during which time bile, urine and plasma samples were taken to monitor uptake and excretion. NMR relaxation rates for liver and plasma were also examined to note whether uptake of either compound might possible alter these parameters.

[2] = Tissue distribution 90 min after i.v. TFA-IOP (100 umol/kg) or IOP (100 in text, 104 umol/kg in tables) in rats; assay type: in vivo; conditions: rat; for concentration at 1.5 h / tissue uptake at 1.5 h: iv; for concentration at 1.5 h: 100 umol/kg; for Percentage of dose in tissue: Table 6; for tissue uptake at 1.5 h: in vivo, read-out: Percentage of dose per gram
Description: No standard curves were compiled for these tissues. The values given
represent concentrations generated using the LIVER analysis routine and
standard curve. Because this routine utilizes a control LIVER spectra for
background modeling, erroneous Iodine concentration values for these
tissues may result due to inappropriate background removal.

[3] = i.v., period 10-0 min (pre-injection)
[4] = i.v., 90 min, Table 1, liver standard curve, may be erroneous

CCC(Cc1c(I)cc(I)c(NC(=O)C(F)(F)F)c1I)C(=O)O (centres unmarked) [TFA-IOP, N-trifluoroacetyl-iopanoic acid]
Bile flow per kg l.w. ([1]; i.v., 80-90 min): 1.986 ml/min per kg l.w. | Biliary excretion rate ([1]; i.v., 80-90 min): .121 µmol/min | Biliary excretion rate per kg b.w. ([1]; i.v., 80-90 min): .277 umoles/min per kg b.w. | Biliary excretion rate per kg l.w. ([1]; i.v., 80-90 min): 9.262 umoles/min per kg l.w. | umoles in bile sample ([1]; i.v., 80-90 min): 1.21 UMOLES | Bile flow [1, 3]: .02093 mL/min | Bile flow per kg b.w. [1, 3]: .04811 ml/min per kg b.w. | Bile flow per kg l.w. [1, 3]: 1.608 ml/min per kg l.w. | Biliary excretion rate [1, 3]: .013 µmol/min | Biliary excretion rate per kg b.w. [1, 3]: .031 umoles/min per kg b.w. | Biliary excretion rate per kg l.w. [1, 3]: 1.021 umoles/min per kg l.w. | umoles in bile sample [1, 3]: .13 UMOLES | umoles running total in bile ([1]; i.v., through 0-10 min): 1.36 UMOLES | umoles running total in bile ([1]; i.v., through 10-20 min): 3.48 UMOLES | umoles running total in bile ([1]; i.v., through 20-30 min): 6.09 UMOLES | umoles running total in bile ([1]; i.v., through 30-40 min): 8.42 UMOLES | umoles running total in bile ([1]; i.v., through 40-50 min): 10.75 UMOLES | umoles running total in bile ([1]; i.v., through 50-60 min): 13.13 UMOLES | umoles running total in bile ([1]; i.v., through 60-70 min): 14.60 UMOLES | umoles running total in bile ([1]; i.v., through 70-80 min): 16.00 UMOLES | umoles running total in bile ([1]; i.v., through 80-90 min): 17.21 UMOLES | umoles running total in bile ([1]; i.v., through period printed 10-0 min (pre-injection)): .13 UMOLES | rate of biliary excretion relative to IOP ([1]; i.v., vs IOP, FIG. 8): approximately twice | dose excreted at 10 min ([1]; Percentage of dose in bile sample, 0-10 min): 2.82% | dose excreted at 20 min ([1]; Percentage of dose in bile sample, 10-20 min): 4.88% | dose excreted at 0.5 h ([1]; Percentage of dose in bile sample, 20-30 min): 5.99% | dose excreted at 40 min ([1]; Percentage of dose in bile sample, 30-40 min): 5.37% | dose excreted at 50 min ([1]; Percentage of dose in bile sample, 40-50 min): 5.35% | dose excreted at 1 h ([1]; Percentage of dose in bile sample, 50-60 min): 5.48% | dose excreted at 70 min ([1]; Percentage of dose in bile sample, 60-70 min): 3.36% | dose excreted at 80 min ([1]; Percentage of dose in bile sample, 70-80 min): 3.24% | dose excreted at 1.5 h ([1]; Percentage of dose in bile sample, 80-90 min): 2.77% | dose excreted at 0 h ([1]; Percentage of dose in bile sample, period 10-0 min (pre-injection)): 0.31% | dose excreted at 10 min ([1]; Percentage of dose running total in bile, through 0-10 min): 3.12% | dose excreted at 20 min ([1]; Percentage of dose running total in bile, through 10-20 min): 8% | dose excreted at 0.5 h ([1]; Percentage of dose running total in bile, through 20-30 min): 14% | dose excreted at 40 min ([1]; Percentage of dose running total in bile, through 30-40 min): 19.4% | dose excreted at 50 min ([1]; Percentage of dose running total in bile, through 40-50 min): 24.7% | dose excreted at 1 h ([1]; Percentage of dose running total in bile, through 50-60 min): 30.2% | dose excreted at 70 min ([1]; Percentage of dose running total in bile, through 60-70 min): 33.6% | dose excreted at 80 min ([1]; Percentage of dose running total in bile, through 70-80 min): 36.8% | dose excreted at 1.5 h ([1]; Percentage of dose running total in bile, through 80-90 min): 39.6% | dose excreted at 0 h ([1]; Percentage of dose running total in bile, through period printed 10-0 min (pre-injection)): 0.31% | concentration at 1.5 h ([2]; heart, i.v., 90 min, liver standard curve used, may be erroneous, read-out: Heart concentration): 243 µM | % of dose in kidney ([2]; i.v., 90 min, Table 1): 0.34% | % of dose in liver ([2]; i.v., 90 min, Table 1): 6.04% | % of dose in heart [2, 4]: 0.72% | % of dose in lower GI [2, 4]: 0.63% | % of dose in lung [2, 4]: 0.83% | % of dose in spleen [2, 4]: 0.24% | % of dose in upper GI [2, 4]: 0.41% | Percentage of dose per kg b.wt. ([2]; i.v., 90 min, heart): 1.66 PERCENTAGE OF DOSE per kg b.wt | uMoles in tissue ([2]; i.v., 90 min, heart): .31 µmol | uMoles per gram tissue ([2]; i.v., 90 min, heart): .24 uMOLES per gram | uMoles per kg ([2]; i.v., 90 min, heart): 242.85 uMOLES per kg | Percentage of dose in tissue ([2]; i.v., 90 min, heart): .72 PERCENTAGE OF DOSE | Percentage of dose per kg b.wt. ([2]; i.v., 90 min, kidney): .78 PERCENTAGE OF DOSE per kg b.wt | uMoles in tissue ([2]; i.v., 90 min, kidney): .15 µmol | uMoles per gram tissue ([2]; i.v., 90 min, kidney): .06 uMOLES per gram | uMoles per kg ([2]; i.v., 90 min, kidney): 57.84 uMOLES per kg | Percentage of dose in tissue ([2]; i.v., 90 min, kidney): .34 PERCENTAGE OF DOSE | Percentage of dose per kg b.wt. ([2]; i.v., 90 min, liver): 13.88 PERCENTAGE OF DOSE per kg b.wt | uMoles in tissue ([2]; i.v., 90 min, liver): 2.63 µmol | uMoles per gram tissue ([2]; i.v., 90 min, liver): .20 uMOLES per gram | uMoles per kg ([2]; i.v., 90 min, liver): 201.73 uMOLES per kg | Percentage of dose in tissue ([2]; i.v., 90 min, liver): 6.04 PERCENTAGE OF DOSE | Percentage of dose per kg b.wt. ([2]; i.v., 90 min, lower GI): 1.45 PERCENTAGE OF DOSE per kg b.wt | uMoles in tissue ([2]; i.v., 90 min, lower GI): .27 µmol | uMoles per gram tissue ([2]; i.v., 90 min, lower GI): .18 uMOLES per gram | uMoles per kg ([2]; i.v., 90 min, lower GI): 178.09 uMOLES per kg | Percentage of dose in tissue ([2]; i.v., 90 min, lower GI): .63 PERCENTAGE OF DOSE | Percentage of dose per kg b.wt. ([2]; i.v., 90 min, lung): 1.91 PERCENTAGE OF DOSE per kg b.wt | uMoles in tissue ([2]; i.v., 90 min, lung): .36 µmol | uMoles per gram tissue ([2]; i.v., 90 min, lung): .28 uMOLES per gram | uMoles per kg ([2]; i.v., 90 min, lung): 277.64 uMOLES per kg | Percentage of dose in tissue ([2]; i.v., 90 min, lung): .83 PERCENTAGE OF DOSE | Percentage of dose per kg b.wt. ([2]; i.v., 90 min, spleen): .55 PERCENTAGE OF DOSE per kg b.wt | uMoles in tissue ([2]; i.v., 90 min, spleen): .10 µmol | uMoles per gram tissue ([2]; i.v., 90 min, spleen): .16 uMOLES per gram | uMoles per kg ([2]; i.v., 90 min, spleen): 164.06 uMOLES per kg | Percentage of dose in tissue ([2]; i.v., 90 min, spleen): .24 PERCENTAGE OF DOSE | Percentage of dose per kg b.wt. ([2]; i.v., 90 min, upper GI): .94 PERCENTAGE OF DOSE per kg b.wt | uMoles in tissue ([2]; i.v., 90 min, upper GI): .18 µmol | uMoles per gram tissue ([2]; i.v., 90 min, upper GI): .14 uMOLES per gram | uMoles per kg ([2]; i.v., 90 min, upper GI): 140.23 uMOLES per kg | Percentage of dose in tissue ([2]; i.v., 90 min, upper GI): .41 PERCENTAGE OF DOSE | tissue uptake at 1.5 h ([2]; 90 min, heart): 0.56 %ID/g | tissue uptake at 1.5 h ([2]; 90 min, kidney): 0.13 %ID/g | tissue uptake at 1.5 h ([2]; 90 min, liver): 0.46 %ID/g | tissue uptake at 1.5 h ([2]; 90 min, lower GI): 0.41 %ID/g | tissue uptake at 1.5 h ([2]; 90 min, lung): 0.64 %ID/g | tissue uptake at 1.5 h ([2]; 90 min, spleen): 0.38 %ID/g | tissue uptake at 1.5 h ([2]; 90 min, upper GI): 0.32 %ID/g | concentration at 1.5 h ([2]; kidney, i.v., 90 min post injection, heading: kidney concentration, read-out: kidney concentration): 57.8 µM | concentration at 1.5 h ([2]; kidney, i.v., 90 min post injection, read-out: Kidney concentration): 57.8 µM | concentration at 1.5 h ([2]; liver, i.v., 90 min post injection, read-out: Liver concentration): 202 µM | concentration at 1.5 h ([2]; liver, i.v., 90 min post injection, read-out: liver concentration): 202 µM | concentration at 1.5 h ([2]; lower gi, i.v., 90 min, liver standard curve used, may be erroneous, read-out: Lower GI concentration): 178 µM | concentration at 1.5 h ([2]; lung, i.v., 90 min, liver standard curve used, may be erroneous, read-out: Lung concentration): 278 µM | concentration at 1.5 h ([2]; spleen, i.v., 90 min, liver standard curve used, may be erroneous, read-out: Spleen concentration): 164 µM | concentration at 1.5 h ([2]; upper gi, i.v., 90 min, liver standard curve used, may be erroneous, read-out: Upper GI concentration): 140 µM
